{"source": "patent US20120202257A1", "about": "“LIGE-TYPE ENZYMES FOR BIOCONVERSION OF LIGNIN-DERIVED COMPOUNDS” (priority 2010, published 2012)", "molecules": {"B1": {"name": "ligE1: N. aromaticivorans putative beta-etherase polypeptide, glutathione S-transferase-like protein, expressed in E. coli (protein)", "chain": "MAANNTITFYDLALSTGATISPFVWATKYALKHKGFDLDVVPGGFTGILERTGGKTERLPAIVDDGEFVLDSWGIVEYLDAKYPDRPVLIPHESVAATLKALDNWFWNAAVGPWMFCFCQDYRDLSLPQDHEYVTHSREKMLGRKLEEVQAGREERLPKISAALEPLRAALAQHQWLGGSSPNYADYRIMGGILFTASVCKTPVLANDDPLRDWIERCLDLYGGLGRHPGLFPLFGLEQREGDPDLFNRAAGQGGIYKRNTGPESTRAETQRITEGMKK"}, "B2": {"name": "ligE: S. paucimobilis beta-etherase, positive control polypeptide (protein)", "chain": "MARNNTITLYDLQLESGCTISPYVWRTKYALKHKGFDIDIVPGGFTGILERTGGRSERVPVIVDDGEWVLDSWVIAEYLDEKYPDRPMLFEGPTQKNLMKFLDNWLWSTAVGPWFRCYILDYHDLSLPQDRDYVRWSREQWFLGGQRLEDVQAGREDRLPLVPPTLEPFRRILAETKWLGGDQPNFADYSALAVFLWTASVARTPPLTEDDPLRDWLDRGFDLFDGLGRHPGMNPLFGLKLREGDPEPFVRQTGPAGAGGQALNKGPQTTKMPPRVAEKAD"}, "B3": {"name": "ABD27309.1: N. aromaticivorans putative beta-etherase polypeptide (protein)", "chain": "MDEVSLYHWEPNANSGKPMLALMEKGVPFSSHYIDMLQFDQHKPEYLAINPQGTIPAMTHNGQVLTESTAIMEYVNDRFDGPDLMPADAQDRWRVRWWMKFMDQWLGPSFSMIGWSVFVGPMVRQRDPAELAAAIDRIPLPERRTAWRKAINGDFSESEMAESRRRVGLGIAKLEEELGKRPYVGSNQYSLADINIFNSTYSLPISQPDLAGKDRTPNIMRWLKRVYTREAVKKTWAMGKTDLAHRYGLIMAEIEG"}, "B4": {"name": "LigF2: N. aromaticivorans putative beta-etherase polypeptide, glutathione S-transferase-like protein (protein)", "chain": "MALKYYHAEPLANSLKSMVPLKEKGLAYESIYVDLHKFEQHQPWFTAINPEGQVPVLDHDGTIITHTTVINEYLEDAFPDAQPADAPLRPRDPVGAARMRYWNKFIDEHVMNYVSMHGWHRMVGVIARNIASGDFEKLLESIPLPDQRKKWATARSGFSEADLANATAKIEYALDKVEKQLGETKWLAGDTYTLADINFYSHCGAMVERMFPEMEVARRAPRLCEWRDRVAARPAVAEALKSEDRTAPGLRVWSGEVR"}, "B5": {"name": "LigF: S. paucimobilis beta-etherase, positive control polypeptide (protein)", "chain": "MTLKLYSFGPGANSLKPLATLYEKGLEFEQVFVDPSKFEQHSDWFKKINPRGQVPALWHDGKVVTESTVICEYLEDVFPESGNSLRPADPFKRAEMRVWTKWVDEYFCWCVSTIGWAFGIKAIAQKMSDEEFEEHINKNVPIPEQQLKWRRARNGFPQEMLDEEFRKVGVSVARLEETLSKQDYLVDTGYSLADICNFAIANGLQRPGGFFGDYVNQEKTPGLCAWLDRINARPAIKEMFEKSKREDLLKRQNEKVA"}, "B6": {"name": "ABD26530.1: N. aromaticivorans putative beta-etherase polypeptide (protein)", "chain": "MVIPLGEDNTIMLKLYSFGPAANSMKPLLTVFEKGLDVEKHRLDPAKFEHHTDWFKAINPRGQVPALVDGDKVVTESTVICEYLEDEYPTEVALRPADSFGKAQMRIWTKWVDEYFCWCVSTIGWHRYVGNMVKSLSDAEFEEKVKAIPVIEQQVKWRRAREGFPQDMLDEEMRKIAYSVRKLDDHLADHEWLVPGQYTLADICNFAIANGMQFGFAELVNKQDTPHLVRWIEQINERPAVKQMFAQVELEKLGPRE"}}, "key": {"Escherichia coli": {"system": "Escherichia coli", "details": "cited from earlier work; for antibacterial activity against Escherichia coli: benzaldehyde derivatives, each demonstrated; for antimicrobial activity against Escherichia coli: each known"}, "Saccharomyces cerevisiae": {"system": "Saccharomyces cerevisiae", "details": "cited from earlier work"}, "[1]": {"assay": "in vitro biochemical assay for beta-etherase activity on fluorescent substrate MUAV (formation of 4MU), clarified E. coli cell extracts", "procedure": "This. example describes a method for gene expression in E. coli, as well as beta-etherase biochemical assays. Expression of known and putative beta-etherase genes was performed using 5 ml cultures of the recombinant E. coli strains described herein in Luria Broth medium by induction of gene expression using isopropylthiogalactoside (IPTG) to a final concentration of 0.1 mM. Following induction, and cell harvest, the cells were disrupted using either sonication or the BPER (Invitrogen) cell lysis system.\nIn vitro reactions were performed in a total volume of 200 ul and contained: 25 mM TrisHCl pH 7.5; 0.5 mM dithiothreitol; 1 mM glutathione; 0.05 mM or 0.1 mM MUAV; 10 ul of clarified cell extract used to initiate the reactions. Following incubation for 2.5 hours at room temperature, a 50 ul sample of the reactions was terminated using 150 uL of 300 mM glycine/NaOH buffer pH 9. The formation of 4 methylumbelliferone (4MU) upon hydrolysis of the aryl ether bond was monitored by the increase in fluorescence at λex=360 nm and λem=450 nm using a Spectramax UV/visible/fluorescent spectrophotometer.\nThe total protein concentrations of the cell lysates were determined using the BCA reagent system for protein quantification (Pierce). […]"}, "[2]": {"details": "E. coli cell extracts expressing the protein, reactions containing 0.1 mM MUAV substrate"}, "[3]": {"details": "MUAV substrate, LigF-type proteins"}}}
{"molecule": "O=Cc1ccc(O)c(O)c1O", "note": "[2,3,4-trihydroxybenzaldehyde]", "values": [{"measurement": "antibacterial activity against Escherichia coli", "setting": "Escherichia coli", "result": "antibacterial activity"}]}
{"molecule": "O=Cc1cccc(O)c1O", "note": "[2,3-dihydroxybenzaldehyde]", "values": [{"measurement": "antibacterial activity against Escherichia coli", "setting": "Escherichia coli", "result": "antibacterial activity"}]}
{"molecule": "O=Cc1c(O)cc(O)cc1O", "note": "[2,4,6-trihydroxybenzaldehyde]", "values": [{"measurement": "antibacterial activity against Escherichia coli", "setting": "Escherichia coli", "result": "antibacterial activity"}]}
{"molecule": "O=Cc1ccc(O)cc1O", "note": "[2,4-dihydroxybenzaldehyde]", "values": [{"measurement": "antibacterial activity against Escherichia coli", "setting": "Escherichia coli", "result": "antibacterial activity"}]}
{"molecule": "O=Cc1cc(O)ccc1O", "note": "[2,5-dihydroxybenzaldehyde]", "values": [{"measurement": "antibacterial activity against Escherichia coli", "setting": "Escherichia coli", "result": "antibacterial activity"}]}
{"molecule": "COc1cccc(C=O)c1O", "note": "[2-hydroxy-3-methoxybenzaldehyde]", "values": [{"measurement": "antibacterial activity against Escherichia coli", "setting": "Escherichia coli", "result": "antibacterial activity"}]}
{"molecule": "COc1ccc(O)c(C=O)c1", "note": "[2-hydroxy-5-methoxybenzaldehyde]", "values": [{"measurement": "antibacterial activity against Escherichia coli", "setting": "Escherichia coli", "result": "antibacterial activity"}]}
{"molecule": "O=Cc1ccccc1O", "note": "[2-hydroxybenzaldehyde]", "values": [{"measurement": "antibacterial activity against Escherichia coli", "setting": "Escherichia coli", "result": "antibacterial activity"}]}
{"molecule": "COc1cc(O)cc(OC)c1C=O", "note": "[4-hydroxy-2,6-dimethoxybenzaldehyde]", "values": [{"measurement": "antibacterial activity against Escherichia coli", "setting": "Escherichia coli", "result": "antibacterial activity"}]}
{"molecule": "O=Cc1ccc(O)cc1", "note": "[4-hydroxybenzaldehyde]", "values": [{"measurement": "antimicrobial activity against Escherichia coli", "setting": "Escherichia coli", "result": "antimicrobial activity"}]}
{"molecule": "O=Cc1ccc(CO)o1", "note": "[5-hydroxymethylfurfural]", "values": [{"measurement": "antimicrobial activity against Escherichia coli", "setting": "Escherichia coli", "result": "antimicrobial activity"}]}
{"molecule": "COc1ccc(C=O)cc1OC", "note": "[Veratraldehyde]", "values": [{"measurement": "antifungal activities against the yeast Saccharomyces cerevisiae", "setting": "Saccharomyces cerevisiae", "result": "significant antifungal activities"}]}
{"molecule": "O=C(O)C=Cc1ccccc1", "note": "[cinnamic acid]", "values": [{"measurement": "antifungal activities against the yeast Saccharomyces cerevisiae", "setting": "Saccharomyces cerevisiae", "result": "significant antifungal activities"}]}
{"molecule": "O=Cc1ccco1", "note": "[furfural]", "values": [{"measurement": "antimicrobial activity against Escherichia coli", "setting": "Escherichia coli", "result": "antimicrobial activity"}]}
{"molecule": "O=C(O)/C=C/c1cccc(O)c1", "note": "[m-coumaric acid]", "values": [{"measurement": "antifungal activities against the yeast Saccharomyces cerevisiae", "setting": "Saccharomyces cerevisiae", "result": "significant antifungal activities"}]}
{"molecule": "O=C(O)/C=C/c1ccccc1O", "note": "[o-coumaric acid]", "values": [{"measurement": "antifungal activities against the yeast Saccharomyces cerevisiae", "setting": "Saccharomyces cerevisiae", "result": "significant antifungal activities"}]}
{"molecule": "O=C(O)/C=C/c1ccc(O)cc1", "note": "[p-coumaric acid]", "values": [{"measurement": "antifungal activities against the yeast Saccharomyces cerevisiae", "setting": "Saccharomyces cerevisiae", "result": "significant antifungal activities"}]}
{"molecule": "COc1cc(C=O)cc(OC)c1O", "note": "[syringaldehyde]", "values": [{"measurement": "antimicrobial activity against Escherichia coli", "setting": "Escherichia coli", "result": "antimicrobial activity"}]}
{"molecule": "COc1cc(C(=O)O)ccc1O", "note": "[vanillic acid]", "values": [{"measurement": "antifungal activities against the yeast Saccharomyces cerevisiae", "setting": "Saccharomyces cerevisiae", "result": "significant antifungal activities"}]}
{"molecule": "COc1cc(C=O)ccc1O", "note": "[vanillin]", "values": [{"measurement": "antimicrobial activity against Escherichia coli", "setting": "Escherichia coli", "result": "antimicrobial activity"}]}
{"molecule": "COc1cc(CCC(C)=O)ccc1O", "note": "[vanillylacetone]", "values": [{"measurement": "antifungal activities against the yeast Saccharomyces cerevisiae", "setting": "Saccharomyces cerevisiae", "result": "significant antifungal activities"}]}
{"molecule": "B1", "values": [{"measurement": "total activity (beta-etherase)", "setting": "[1]; [2]", "result": 529, "unit": "rfu/ug"}, {"measurement": "beta-etherase activity (in words)", "setting": "[1]; MUAV substrate", "result": "much elevated beta-etherase activity"}, {"measurement": "beta-etherase activity (in words)", "setting": "[1]; MUAV substrate, listed as ABD26841.1", "result": "beta-etherase activity"}]}
{"molecule": "B2", "values": [{"measurement": "total activity (beta-etherase)", "setting": "[1]; [2]", "result": 7, "unit": "rfu/ug"}]}
{"molecule": "B3", "values": [{"measurement": "beta-etherase activity (in words)", "setting": "[1]; MUAV substrate", "result": "beta-etherase activity"}]}
{"molecule": "B4", "values": [{"measurement": "beta-etherase activity (in words)", "setting": "[1]; MUAV substrate", "result": "beta-etherase activity"}, {"measurement": "total activity (beta-etherase)", "setting": "[1]; [3]", "result": 1206, "unit": "rfu/ug"}]}
{"molecule": "B5", "values": [{"measurement": "total activity (beta-etherase)", "setting": "[1]; [3]", "result": 558, "unit": "rfu/ug"}]}
{"molecule": "B6", "values": [{"measurement": "beta-etherase activity (in words)", "setting": "[1]; MUAV substrate", "result": "beta-etherase activity"}]}
